Measured values taken from US12649746B2, “Ketorolaco derivative, pharmaceutical composition and preparation method therefor and use thereof” (NANJING HERON PHARMACEUTICAL SCIENCE AND TECHNOLOGY CO., …, priority 2020, dated 2026).

Assay: Stability study of levorotatory enantiomer of compounds in solvent (MCT)
Format: physicochemical
Conditions: MCT solution; for Isomer (%): dextrorotatory form
Description: 2. Test method: the samples were prepared according to Table 2, wherein each sample was dispensed into 10 vials according to the lofting volume, and the samples were lofted according to Table 3.
4. The related substance was determined according to high performance liquid chromatography (General Chapter 0512, China Pharmacopoeia, 2015 Edition).
(1) Chromatographic conditions: the chromatography column was Agilent ZORBAX SB-C8, 4.6 mm×250 mm, 5 μm, and 0.1% phosphoric acid solution-acetonitrile (50:50) was used as a mobile phase; the detection wavelength was […]; the flow rate was 1.0 mL/min; the column temperature was 40° C., and linear gradient elution was performed according to the following table;
(§1) (2) Determination method: an appropriate amount of the product was weighed precisely, a diluent (absolute ethanol) was added and shaken to dissolve, and quantitatively diluted to give a solution containing 0.4 mg per 1 mL, the solution was […] by vortex for 30 s, and filtered with PTFE filter membrane (0.22 μm, JINTENG), and the filtrate was collected as a test sample solution. 10 μL of the solution was weighed precisely and injected into a liquid chromatograph, and a chromatogram was recorded; if an impurity peak existed in the chromatogram of the test sample solution, calculation was performed according to a peak area normalization method to give the target product.
5. Isomer determination was performed according to high performance liquid chromatography (General Chapter 0512, China Pharmacopoeia, 2015 Edition).
(1) Chromatographic conditions: cellulose-tris(3,5-dimethylphenylcarbamate)silica gel was used as filler (Chiralcel OD-H, 250×4.6 mm, 5 μm); n-hexane-isopropanol (90:10) was used as a mobile phase, and isocratic elution was performed for 25 min at a flow rate of 1.0 mL/min; the column temperature was 35° C.; the detection wavelength was 310 nm.
as §1, with “(n-hexane-isopropanol (90:10))” for “(absolute ethanol)”, “about 1.0” for “0.4”, “20” for “10”, “isomer” for “impurity”

Row | Compound | Ketorolac (%) (5° C., Day 5) | Purity (%) (5° C., Day 5) | Ketorolac (%) (5° C., Day 15) | Purity (%) (5° C., Day 15) | Ketorolac (%) (5° C., Day 30) | Purity (%) (5° C., Day 30) | Ketorolac (%) (5° C., day 0) | Purity (%) (5° C., day 0) | Ketorolac (%) (25° C., Day 5) | Purity (%) (25° C., Day 5) | Ketorolac (%) (25° C., Day 15) | Purity (%) (25° C., Day 15) | Ketorolac (%) (25° C., Day 30) | Purity (%) (25° C., Day 30) | Ketorolac (%) (25° C., day 0) | Purity (%) (25° C., day 0) | Ketorolac (%) (60° C., Day 5) | Purity (%) (60° C., Day 5) | Ketorolac (%) (60° C., Day 15) | Purity (%) (60° C., Day 15) | further results
1 | CCOC(=O)OC(C)OC(=O)[C@H]1CCn2c(C(=O)c3ccccc3)ccc21 (stereo partly drawn) [N12(S)] | 0.02% | 99.62% | 0.02% | 99.64% | 0.03% | 99.55% | 0.02% | 99.65% | 0.03% | 99.59% | 0.04% | 99.61% | 0.07% | 99.49% | 0.02% | 99.65% | 0.09% | 99.53% | 0.23% | 99.35% | Ketorolac (%) (60° C., Day 30): 0.41%; Purity (%) (60° C., Day 30): 99.05%; Ketorolac (%) (60° C., day 0): 0.02%; Purity (%) (60° C., day 0): 99.65%; Isomer (%) (5° C., Day 5): 3.05%; Isomer (%) (5° C., Day 15): 3.07%; Isomer (%) (5° C., Day 30): 3.06%; Isomer (%) (5° C., day 0): 3.01%; Isomer (%) (25° C., Day 5): 3.04%; Isomer (%) (25° C., Day 15): 3.09%; Isomer (%) (25° C., Day 30): 3.11%; Isomer (%) (25° C., day 0): 3.01%; Isomer (%) (60° C., Day 5): 3.12%; Isomer (%) (60° C., Day 15): 3.1%; Isomer (%) (60° C., Day 30): 3.48%; Isomer (%) (60° C., day 0): 3.01%
2 | CCOC(=O)OC(CC)OC(=O)[C@H]1CCn2c(C(=O)c3ccccc3)ccc21 (stereo partly drawn) [N15(S)] | 0.02% | 99.46% | 0.02% | 99.45% | 0.03% | 99.38% | 0.03% | 99.48% | 0.03% | 99.42% | 0.03% | 99.41% | 0.05% | 99.33% | 0.03% | 99.48% | 0.06% | 99.35% | 0.17% | 99.21% | Ketorolac (%) (60° C., Day 30): 0.35%; Purity (%) (60° C., Day 30): 98.92%; Ketorolac (%) (60° C., day 0): 0.03%; Purity (%) (60° C., day 0): 99.48%; Isomer (%) (5° C., Day 5): 4.58%; Isomer (%) (5° C., Day 15): 4.73%; Isomer (%) (5° C., Day 30): 4.62%; Isomer (%) (5° C., day 0): 4.59%; Isomer (%) (25° C., Day 5): 4.58%; Isomer (%) (25° C., Day 15): 4.72%; Isomer (%) (25° C., Day 30): 4.64%; Isomer (%) (25° C., day 0): 4.59%; Isomer (%) (60° C., Day 5): 4.59%; Isomer (%) (60° C., Day 15): 4.75%; Isomer (%) (60° C., Day 30): 4.63%; Isomer (%) (60° C., day 0): 4.59%
